From the supplement of paper PMC10307832

How the values were obtained:
Assay in all cases: relative viability (nuclei count vs DMSO), 5 days (fraction); higher = more cells survive
[1] = compound: Cc1nc(Nc2ncc(C(=O)Nc3c(C)cccc3Cl)s2)cc(N2CCN(CCO)CC2)n1 [Dasatinib] + CCNC(=O)c1noc(-c2cc(C(C)C)c(O)cc2O)c1-c1ccc(CN2CCOCC2)cc1 [Luminespib] (partner 0.01 µM)
Summary of the method: (§1)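 Five library-drug doses in √10 steps were combined with a fixed anchor-drug dose, or a single drug was given alone, by pin tool to lung cancer cell lines in 1536-well plates the day after seeding. Nuclei were stained and counted after 5 days. Relative viability is the nuclei count in treated wells over that in vehicle wells, taken as the median of duplicate plates.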

[2] = compound: Cc1ccc(C(=O)Nc2cccc(C(F)(F)F)c2)cc1Nc1cncc(C(N)=O)c1 [ALW-II-49-7] + N=C(N)NC(=N)NCCc1ccccc1 [Phenformin] (partner 250 µM)
Summary of the method: as §1

[3] = compound: Cc1nc(Nc2ncc(C(=O)Nc3c(C)cccc3Cl)s2)cc(N2CCN(CCO)CC2)n1 [Dasatinib] + Cc1cc(Nc2cc(N3CCN(C)CC3)nc(Sc3ccc(NC(=O)C4CC4)cc3)n2)n[nH]1 [Tozasertib] (partner 0.1 µM)
Summary of the method: as §1

[4] = compound: C1CC1C(=O)NC2=NNC3=C2C=CC(=C3)C4=CC(=CC=C4)C(=O)NC5CC5 [XMD13-2] + C[C@@H](Oc1cc(-c2cnn(C3CCNCC3)c2)cnc1N)c1c(Cl)ccc(F)c1Cl [Crizotinib] (partner 1 µM)
Summary of the method: as §1

Cell Line	relative viability ([1]; first compound 0.005 µM)	relative viability ([1]; first compound 0.01581 µM)	relative viability ([1]; first compound 0.05 µM)	relative viability ([1]; first compound 0.1581 µM)	relative viability ([1]; first compound 0.5 µM)	relative viability ([2]; first compound 0.08 µM)	relative viability ([2]; first compound 0.253 µM)	relative viability ([2]; first compound 0.8 µM)	relative viability ([2]; first compound 2.53 µM)	relative viability ([2]; first compound 8 µM)	relative viability ([3]; first compound 0.005 µM)	relative viability ([3]; first compound 0.01581 µM)	relative viability ([3]; first compound 0.05 µM)	relative viability ([3]; first compound 0.1581 µM)	relative viability ([3]; first compound 0.5 µM)	relative viability ([4]; first compound 0.05 µM)	relative viability ([4]; first compound 0.1581 µM)	relative viability ([4]; first compound 0.5 µM)	relative viability ([4]; first compound 1.581 µM)	relative viability ([4]; first compound 5 µM)
NCI-H1437	1.11	1.12	1.16	1.08	0.665	0.266	0.297	0.301	0.297	0.263	0.431	0.38	0.394	0.32	0.314	0.874	1.02	0.902	0.886	1.07
NCI-H1650	0.228	0.199	0.236	0.177	0.187	0.447	0.465	0.427	0.492	0.476	0.356	0.302	0.342	0.233	0.153	1.31	0.861	1.02	0.989	1.16
NCI-H1651	0.742	0.723	0.868	0.677	0.63	0.345	0.312	0.376	0.317	0.321	0.679	0.611	0.724	0.522	0.656	0.946	0.811	0.886	0.898	0.863
NCI-H1666	0.992	1.05	1.06	0.88	0.459	0.565	0.568	0.58	0.703	0.653	0.632	0.616	0.67	0.565	0.309	0.832	0.989	1.09	0.971	0.855
NCI-H1734	0.185	0.191	0.159	0.167	0.156	0.345	0.359	0.385	0.381	0.335	0.26	0.285	0.235	0.165	0.181	0.91	0.655	0.66	0.594	0.474
NCI-H1755	0.522	0.301	0.375	0.303	0.16	0.584	0.627	0.612	0.55	0.405	0.584	0.532	0.516	0.312	0.21	0.982	0.85	0.861	0.856	0.922
NCI-H1915	0.818	0.601	0.673	0.208	0.149	0.333	0.32	0.364	0.353	0.342	0.435	0.372	0.301	0.173	0.157	0.966	0.931	0.902	0.967	0.941
NCI-H1944	0.73	0.625	0.609	0.448	0.129	0.193	0.231	0.18	0.176	0.138	0.259	0.223	0.201	0.111	0.104	1.42	1.11	1.14	1.35	1.09
NCI-H1975	0.177	0.212	0.155	0.178	0.139	0.393	0.461	0.39	0.415	0.412	0.692	0.677	0.648	0.377	0.245	1.21	1.02	0.91	0.954	1.14
NCI-H1993	0.883	0.598	0.971	0.432	0.543	0.535	0.546	0.542	0.544	0.502	0.524	0.435	0.563	0.448	0.377	0.913	0.844	0.935	0.768	0.69
NCI-H2009	1.05	1.02	1.1	0.605	0.168	0.463	0.49	0.444	0.334	0.283	0.738	0.65	0.679	0.4	0.179	1.09	1.03	1.05	1	1.12
NCI-H2023	0.646	0.669	0.599	0.518	0.507	0.384	0.467	0.403	0.395	0.319	0.304	0.316	0.293	0.245	0.219	0.738	0.592	0.62	0.556	0.809
NCI-H2085	0.411	0.307	0.459	0.275	0.166	0.754	0.639	0.677	0.889	0.693	0.737	0.641	0.564	0.229	0.214	1.09	0.901	0.877	0.736	0.826
NCI-H2087	0.211	0.133	0.152	0.148	0.149	0.526	0.459	0.488	0.467	0.445	0.289	0.21	0.246	0.185	0.113	0.821	0.776	0.913	0.83	0.897
NCI-H2126	0.837	0.792	0.835	0.55	0.375	0.507	0.549	0.505	0.515	0.485	0.832	0.732	0.773	0.654	0.348	1.08	0.979	1.04	0.998	1.06
NCI-H2170	0.497	0.482	0.597	0.315	0.273	0.411	0.435	0.432	0.387	0.346	0.698	0.622	0.722	0.564	0.247	1.27	1.17	1.34	1.19	1.16
NCI-H2228	0.158	0.095	0.145	0.0907	0.101	0.286	0.215	0.328	0.251	0.334	0.231	0.232	0.216	0.185	0.184	0.714	0.442	0.496	0.445	0.513
NCI-H2347	0.404	0.359	0.266	0.23	0.276	0.455	0.334	0.329	0.26	0.297	0.56	0.454	0.363	0.238	0.263	0.739	0.676	0.772	0.906	0.73
NCI-H2405	0.501	0.309	0.309	0.247	0.142	0.389	0.411	0.343	0.351	0.358	0.639	0.468	0.448	0.222	0.161	0.932	0.84	0.971	0.846	0.837
NCI-H3122	0.0996	0.0732	0.124	0.0691	0.0615	0.394	0.366	0.381	–	0.302	0.38	0.388	0.414	0.373	0.292	0.308	0.289	0.267	0.251	0.249
PC-3 [JPC-3]	0.741	0.646	0.76	0.576	0.389	0.486	0.461	0.456	0.448	0.452	0.895	0.859	0.976	0.799	0.579	1.02	0.897	0.963	1.01	0.847
PC-14	0.237	0.113	0.152	0.158	0.105	0.562	0.637	0.528	0.406	0.546	0.54	0.583	0.514	0.667	0.227	1.03	0.961	0.909	0.818	0.969
RERF-LC-KJ	1.3	1.05	1.06	0.982	0.993	0.419	0.456	0.414	0.373	0.397	0.52	0.511	0.44	0.487	0.406	0.865	0.85	0.816	0.771	0.801
SK-LU-1	0.162	0.15	0.151	0.104	0.118	0.445	0.583	0.519	0.445	0.435	0.272	0.194	0.156	0.101	0.0919	0.912	0.966	1	0.828	0.944
SK-MES-1	0.844	0.656	0.353	0.128	0.154	0.644	0.637	0.625	0.577	0.512	0.972	1.02	0.938	0.556	0.22	1.14	1.06	1.04	0.93	1.02
SW 1573	0.211	0.216	0.272	0.139	0.154	0.347	0.385	0.374	0.479	0.398	0.174	0.189	0.193	0.128	0.131	1.11	0.429	0.815	0.668	0.322
